Experiments:
[1] = tested on: CEM-SS; assay: Antiviral activity against HIV-1 in CEM-SS cells using […] assay; type: functional, cell-based; settings: Homo sapiens
[2] = tested on: Human immunodeficiency virus 1; assay: Compound was tested for binding of HIV-1 to CEM-ss cells; NI = No inhibition; type: functional, organism-based
[3] = biological target: Human immunodeficiency virus type 1 protease (Human immunodeficiency virus 1, UniProt Q72874); assay: Compound was tested for effects on HIV-1 protease; NI = No inhibition
[4] = biological target: Human immunodeficiency virus type 1 reverse transcriptase (Human immunodeficiency virus 1, UniProt Q72547); assay: Compound was tested for the effect on HIV-1 Reverse Transcriptase; NI = No inhibition
[5] = tested on: CEM-SS; assay: Antiviral activity against HIV-1ADA in […]; type: functional, cell-based; settings: Homo sapiens
[6] = tested on: CEM-SS; assay: Antiviral activity against HIV-1ADA in […]; I = No antiviral activity; type: functional, cell-based, Homo sapiens
[7] = tested on: CEM-SS; assay: Antiviral activity against HIV-1 in CEM-SS cells using […] assay; I = No antiviral activity; type: functional, cell-based, Homo sapiens

Row | SMILES | EC50 [1] | IC50 [1] | I50 [2] | I50 [3] | I50 [4] | EC50 [5] | IC50 [5] | EC50 [6] | EC50 [7]
1 | NCCSSCCN [CYSTAMINE] | 56.2 µM | 172 µM | Not Active | Not Active | Not Active | 4.3 µM | > 100 µM |  | 
2 | CCN(CC)C(=S)S [DITIOCARB] |  | > 100 µM | Not Active | Not Active | Not Active |  | > 100 µM | Not Active | Not Active
3 | C/C(=C(\CCO)SS/C(CCO)=C(/C)N(C=O)Cc1cnc(C)nc1N)N(C=O)Cc1cnc(C)nc1N |  | 535 µM | Not Active | Not Active | Not Active |  | > 100 µM | Not Active | Not Active
4 | NCCS [CYSTEAMINE] | 41.6 µM | 71 µM | Not Active | Not Active | Not Active | 53.7 µM | > 100 µM |  | 
5 | CCN(CC)C(=S)SSC(=S)N(CC)CC [DISULFIRAM] |  | 3.9 µM | Not Active | Not Active | Not Active |  | > 100 µM | Not Active | Not Active

— ChEMBL document CHEMBL1130070, “Zinc ejection as a new rationale for the use of cystamine and related disulfide-containing antiviral agents in the treatment of AIDS” (J Med Chem, 1997)
